For experiment [1], the system named is phosphonucleolin. The experiment in a line: phosphonucleolin cytoblot, suppression of nocodazole-induced mitotic arrest. Format: cell-based, human. The settings on record: A549 cells; pretreated 8 hour, then 250 nM nocodazole 12 hours. The procedure: FIG. 10. The ability of anti-proliferative agents such as juglone to suppress the effects of nocodazole-induced mitotic arrest can be detected in a cytoblot. […] (b) A549 human lung carcinoma cells were seeded at a density of 4000 cells in 40 μL of DMEM+ in each well of a white, opaque 384-well plate and incubated overnight at 37° C. with 5% CO2. Cells were either untreated or pretreated with juglone at the indicated concentrations for 8 hour. Subsequently, nocodazole at a final concentration of 250 nM was added to all wells in a final volume of 50 μL and the cells incubated for a further 12 hours. A phosphonucleolin cytoblot was performed. […] A 4 mm scale bar is shown.
The treatment of cells with any small molecule that arrests cells outside of mitosis will suppress the ability of nocodazole to arrest cells in mitosis. […] It was hypothesized that inhibition of Pin1, which is an essential, highly conserved PPIase required for proper mitotic division in Xenopus and yeast, would prevent entry into mitosis and consequently prevent accumulation of phosphonucleolin (FIG. 10a).

Experiment [2] deals with p3TPLux TGFβ-responsive reporter in 6F mink lung cells. The experiment in a line: luciferase assay, stably transfected p3TPLux. The following applies: for synergy with TGFβ: 400 pM TGFβ1; for reporter gene expression: stably transfected reporter. Format: cell-based. On the procedure:
FIG. 19 graphs the dose-response of transcriptional activation of compounds 1a and 2 in the presence (*) or absence (•) of 400 pM TGFβ1. 20,000 6F mink lung cells ( ) were seeded in 384 well plates, allowed to attach for 16 hours in 10% mink medium, and were treated with the indicated concentrations of 1a or 2.
We screened more than 16,000 chemical compounds to identify those that specifically activated expression of a reporter gene (luciferase) under the control of TGFβ-responsive elements in stably transfected mammalian cells (mink lung epithelial cells). […] Given the structural similarity of compounds 1a-c, we expected that all three were operating through a common mechanism. We therefore continued testing on only one, compound 1a, as representative of the group.

Experiment [3] relates to BS-C-1 cells. The experiment in a line: fluorescence microscopy and live imaging of BS-C-1 cells. Format: cell-based, monkey. The following applies: BS-C-1 cells; 1A at 40 μM for 4 hours.
From the text: We investigated the phenotype of mammalian cells (BS-C-I) treated with the compounds of group III. […] Our examination of the distribution of microtubules, actin, and chromatin in fixed cells by fluorescence microscopy allowed us to divide the small molecules into three classes.
We then asked whether the chromosomes surrounding the monoastral microtubule array maintain microtubule attachment.
Experiment [4] is described as follows: UV spectral shift binding assay with 1a. The following applies: UV 240-310 nm. The procedure:
(§1) UV SPECTRAL SHIFT BINDING ASSAY: A quartz cuvette with 1 mL deionized, distilled water was used as a blank on a Cary 1E UV-visible spectrophotomer. 1a or 2 was diluted to a final concentration of 15 μM or 20 μM, respectively, and the UV spectrum from 240 nm to 320 nm was measured. […] Upon addition of certain transition metals (Table 1), this peak shifted such that the new λmax was 273 nm and 310 nm, for 1a and 2, respectively. […] For the calculation of correlation coefficients, all values less than 7.5 μM were taken to be 7.5 μM, all values greater than 1000 μM were taken to be 1000 μm and all values less than 10 μM were taken to be 10 μM.

Experiment [5] deals with mink lung epithelial cells. The experiment in a line: BrdU cytoblot assay for S-phase progression. Format: cell-based. From the text:
BRDU CYTOBLOT ASSAY: The BrdU cytoblot assay for S-phase progression was described previously by Stockwell et al. (Chem. Biol. 6:71, 1999; see also, U.S. Patent Application Ser. No. 60/094,305, incorporated herein by reference).
Compounds that mimic TGFβ activity would be expected to be capable of inducing cell cycle arrest or apoptosis, and in particular to block DNA replication, in responding cells. We therefore used an S-phase progression cytoblot assay to test whether our compounds could inhibit 5-bromodeoxyuridine (BrdU) incorporation into mink epithelial cells. […] Both compounds were therefore classified as true TGFβ mimics.

For experiment [6], the system named is microtubules. The experiment in a line: competition with fluorescently labeled taxol. The following applies: oregon green labeled taxol, fluorescence polarization. It counts as binding. From the text:
(§2) Since taxol and discodermolide prevent cold depolymerization of microtubules (Hung et al., Chem. Biol. 3:287, 1996), we tested whether synstab A-treatment of cells would cause a similar effect. […] This mutually exclusive binding is consistent with the observed taxol-like effects of synstab A on cells and on purified microtubules.
Three different assays were used to confirm microtubule-stabilizing effects in the in vitro tubulin polymerization assay by repeating the above experiment. In addition, three independent experiment assessments were carried out. 1) In vitro competition experiments with fluorescence-labeled taxol. […] 2) In vivo incubation of BSCI-cells (a monkey epithelial cell line) with 40 μM 1A for four hours. In brief, BSCI cells were seeded on glass coverslips and cultured overnight. […] 3) treatment of cells with 1A resulted index by the phosphonucleolin (TG-3) cytoblot as described above as measured visually.
Background: Fluorescence polarisation rises when a labelled molecule tumbles more slowly, as on binding a larger partner.

The subject of experiment [7] is transiently transfected TGFβ-responsive reporter. The experiment in a line: transient transfection luciferase assay, p3TPLux. Format: cell-based, mink. On the procedure: (§3) LUCIFERASE ASSAYS: Our transient transfection luciferase assay was described previously by us (Stockwell et al., Chem Biol 5:385, 1998). Briefly, 100,000 Mv1Lu mink lung epithelial cells were transiently transfected in 12-well dishes with 400 ng p3TPLux or pNFkB-Lux, with or without 50 ng pFC-MEKK, in 300 μL minimal essential medium with non-essential amino acids. The DEAE-dextran/chloroquine/DMSO methods was used for transfection (Stockwell et al., Chem Biol 6:71, 1999). After cell lysis in 120 μL lysis buffer, a Beckman LS 6500 liquid scintillation counter was used in single photon mode to quantitate luminescence. For detection of luciferase activity in 6F cells (including the primary screen), 20,000 6F cells were seeded in 50 μL of 10% mink medium in each well of a white 384-well plate (Nalge Nune International; Naperville, Ill.; cat#164610) using a Multidrop 384 liquid dispenser (Lab Systems; Helsinki, Finland). After 16 hours, medium was removed using a 24 channel wand (V&P Scientific, Inc.; San Diego, Calif.; cat#VP 186L), the cells were washed with 75 μL of 0.2% mink medium (containing 0.2% FBS), and reagents were added in 40 μL of 0.2% medium. For the primary screen, reagents were added by pin transfer using 384 polypropylene pin arrays (Matrix Technologies; Hudson, N.H.). After 24 hours, the cells were cooled on ice and washed twice with 75 μL Hanks Balanced Salt Solution (HBSS; GibcoBRL; cat#24020-117). Then 20 μL lysis buffer (25 mM glycylglycine (Sigma; cat#E-0396), 1% Triton X-100 (Sigma; cat#T-9284), 1 mM dithiothreitol (DTT; Sigma; cat#D-5545), 1 mM phenylmethylsulfonyl fluoride (PMSF; Sigma; cat#P-7626)) was added to each well with a Multidrop. After incubating the cells for five minutes on ice, 20 μL of ATP/luciferin solution was added (25 mM glycylglycine pH 7.8, 15 mM MgSO4, 4 mM EGTA, 6.25 mM K2HPO4 (Sigma; cat#P5504) pH 7.8, 5 mM DTT, 75 μM D-luciferin (Sigma, cat# L-9504, 2 mM ATP (Sigma; cat#A-7699)). Light output was immediately measured with an Analyst 384-well platereader (LJL), with 0.5 second counting time per well.

For experiment [8], the system named is S. cerevisiae strain BY4741. The procedure: TRANSCRIPTIONAL PROFILING: We performed transcriptional profiling on yeast cells according to known techniques. […] We therefore set thresholds of 0.5 fold and 2.0 fold for transcriptional repression and transcriptional activation, respectively, in our experimental comparisons of untreated cells and cells treated with test compounds.
Briefly, S. cerevisiae strain BY4741 (haploid) was streaked on a YPD plate, grown for 3 days at 30° C., and used to inoculate a 50 mL overnight culture of YPD. This culture was diluted into pre-warmed YPD such that A600=0.04 and allowed to grow until A600=0.47. The culture was split into pre-warmed flasks, with 50 mL in each of three flasks and 150 mL in a fourth flask. […] The cultures were centrifuged at 2500 g at room temperature for five minutes and the pelle frozen in liquid nitrogen. Total RNA was purified from each culture by hot acidic phenol/chloroform extraction and ethanol precipitation. Poly-A RNA wad purified with a Qiagen Oligotex mRNA Midi Kit (Qiagen; Valencia, Calif.; cat#70042). Fluorescently-labeled probe was prepared from […] poly-A mRNA and applied to glass slides that had been printed with 6240 yeast ORFs (James Hardwick, Jeffrey Tong, and Stuart L. Schreiber, unpublished results). The microarray was scanned with an Array Works scanner and the results were analyzed with Gene Spring software.

Experiment [9] concerns control reporter responsive to NFκB. The settings on record: transiently transfected. The procedure:
as §3, with “After 16 hours, medium was removed using a 24 channel wand (V&P Scientific, Inc.; San Diego, Calif.; cat#VP 186L), the cells were washed with 75 μL of 0.2% mink medium (containing 0.2% FBS), and reagents were added in 40 μL of 0.2% medium. For the primary screen, reagents were added by pin transfer using 384 polypropylene pin arrays (Matrix Technologies; Hudson, N.H.). After 24 hours, the cells were cooled on ice and washed twice with 75 μL Hanks Balanced Salt Solution (HBSS; GibcoBRL; cat#24020-117). Then 20 μL lysis buffer (25 mM glycylglycine (Sigma; cat#E-0396), 1% Triton X-100 (Sigma; cat#T-9284), 1 mM dithiothreitol (DTT; Sigma; cat#D-5545), 1 mM phenylmethylsulfonyl fluoride (PMSF; Sigma; cat#P-7626)) was added to each well with a Multidrop.” left out

The nature of experiment [10]: UV spectral shift binding assay with 2. The following applies: UV 240-310 nm. The procedure:
as §1

Experiment [11] concerns TG-3 staining. The experiment in a line: fluorescence-activated cell sorting and TG-3 immunoblotting. It counts as cell-based. The following applies: concentrations that do not affect viability. (A western blot detects proteins with antibodies after separation by electrophoresis.)
Experiment [12] relates to microtubules. The experiment in a line: cold depolymerization of microtubules in cells. Format: cell-based. The following applies: 4° C., 0.5 h, taxol 10 μM, 4 h, synstab A 25 μM.
From the text: as §2

“Also recorded” adds a separate entry of the source. Read-outs that look alike come from different tables or passages of the source.

The values below come from patent publication US20080311589A1, “METHOD OF HIGH-THROUGHPUT SCREENING OF MOLECULES AND COMPOUNDS FOR THEIR EFFECTS ON BIOLOGICAL AND CHEMICAL PROCESSES” (priority 1999, published 2008).

In the case of `O=C1C=CC(=O)c2c(O)cccc21` [juglone], the “concentrations that prevent accumulation of phosphonucleolin” value in [1] is recorded as “greater than 25 microM”.
Turning to `CN(c1ccc2cccc(O)c2n1)c1ccc2cccc(O)c2n1` [Compound 1a, 2,2′-(methylimino)bis-8(quinolinol)], the “synergy with TGFβ” value in experiment [2] is on record as “synergistic with TGFβ”. For the same molecule, the reporter gene expression result in experiment [2] was “dose-dependent increase in reporter gene expression”. Further, the “microtubule, spindle and chromosome phenotype” value in experiment [3] was “showed bundling of interphasic microtubules and aberrant mitotic spindles with misaligned chromosomes”. In experiment [4], the “binding of 1a to metals (shift in UV absorbance maximum)” value is “binds strongly to Zn^2+, Fe^2+, Cu^2+, Cu^+, and Al^3+, and less well to Mn^2+, Co^2+, and Ni^2+”. Further, the BrdU incorporation entry in [5] is reported as “inhibited BrdU incorporation; also recorded: inhibition of BrdU incorporation”. For the same molecule, in experiment [6], the “competition for binding of fluorescently labeled taxol” value is listed as “compete off bound labeled taxol”. Besides, the “activation of transiently versus stably transfected TGFβ-responsive reporter” value in [7] is on record as “less effective”. For the same molecule, the “[…] IN PRESENCE OF COMPOUND […] IN ABSENCE OF COMPOUND” value in experiment [8] (gene YAL045C (ARN1), Multi-drug resistance pump, repressed genes) came to 0.49; in experiment [8] (gene YBL005WA, TyA transposon, activated genes), 2.2; in experiment [8] (gene YHL040C (ARN1), multidrug resistance pump, activated genes), 2.0. The “activation of NFκB-responsive control reporter” value in [9] is “Neither compound activated”.
For `O=C(NN=Cc1ccccc1O)c1ccc(O)cc1` [Compound 2, Benzoic acid, 4-hydroxy, [(2-hydroxyphenyl)methylene]hydrazide], in experiment [2], the “synergy with metals in reporter activation” value was “synergized strongly with both Cu^+ and Cu^2+ but not with other metals”; the “synergy with TGFβ” value is recorded as “synergistic with TGFβ”; the reporter gene expression entry is recorded as “dose-dependent increase in reporter gene expression”. Further, the “activity in screen (TGFβ-responsive luciferase reporter)” value in [2] (primary screen of more than 16,000 compounds) is reported as “showed activity in our screen”. The “binding of 2 to metals (shift in UV absorbance maximum)” value in [10] is “binds well to Fe^3+, Cu^2+, Cu^+, and CO^2+, and also shows some binding to Ni^2+”. In experiment [5], the BrdU incorporation entry was “inhibited BrdU incorporation; also recorded: inhibition of BrdU incorporation”. In addition, the “activation of transiently versus stably transfected TGFβ-responsive reporter” value in [7] is reported as “less effective”. For the same molecule, in experiment [8], the “effect on gene expression in yeast cells” value is listed as “no detectable effect on gene expression in yeast cells”. Further, in experiment [9], the “activation of NFκB-responsive control reporter” value is given as “Neither compound activated”.
With `CC(=O)O[C@H]1C(=O)[C@@]2(C)[C@H]([C@H](OC(=O)c3ccccc3)[C@]3(O)C[C@H](OC(=O)[C@H](O)[C@@H](NC(=O)c4ccccc4)c4ccccc4)C(C)=C1C3(C)C)[C@]1(OC(C)=O)CO[C@@H]1C[C@@H]2O` [taxol], the “TG-3 reactivity of total cell extracts” value in experiment [11] is “increased TG-3 reactivity”. Further, in [3], the “microtubule, spindle and chromosome phenotype” value is listed as “less pronounced than that induced by synstab A”. Further, in [12], the “protection from cold depolymerization” value is “noticeably stabilized microtubules”.
